In patent US20260070945A1, “MACROCYCLIC IMMUNOMODULATORS” (Bristol-Myers Squibb Company, priority 2022, published 2026) one finds IC50 data, which are given here for nine molecules.

Broadly, the pIC50 is the IC50 on a negative log10 scale, so that one unit is a factor of ten.

pIC50: −log10 of the molar value. Where a SMILES comes first, the peptide text is derived from it. Bridges are numbered along the chain shown (N, C = ends). [ ]: non-standard residue; d: D form. The star is where a group is joined. Phe(4-CH2CH2COOH) = N[C@@H](Cc1ccc(CCC(=O)O)cc1)C(=O)O; Trp(βS-Me) = C[C@@H](c1c[nH]c2ccccc12)[C@H](N)C(=O)O; Phe(4-CONH2) = NC(=O)c1ccc(C[C@H](N)C(=O)O)cc1; Phe(4-COOH) = N[C@@H](Cc1ccc(C(=O)O)cc1)C(=O)O; Bip = N[C@@H](Cc1ccc(-c2ccccc2)cc1)C(=O)O; Phe(3-Me) = Cc1cccc(C[C@H](N)C(=O)O)c1; hPhe = N[C@@H](CCc1ccccc1)C(=O)O; 3Pal = N[C@@H](Cc1cccnc1)C(=O)O; Cha = N[C@@H](CC1CCCCC1)C(=O)O; Cit = NC(=O)NCCC[C@H](N)C(=O)O; Carboxymethyl = O=C(O)C*; NMeA = CN[C@@H](C)C(=O)O; Aun = NCCCCCCCCCCC(=O)O; Dab = NCC[C@H](N)C(=O)O; AEEA = NCCOCCOCC(=O)O; Ac3c = NC1(C(=O)O)CC1; Piv = CC(C)(C)C(=O)*

This assay deals with T1, PD-1/PD-L1 interaction (PE-labeled human PD-L1-Ig binding to Jurkat cell line over-expressing human PD-1) (Homo sapiens, UniProt Q15116).
T1 construct: expressed in transfected cells; host or cells: Jurkat
T1 sequence (Q15116 25-288): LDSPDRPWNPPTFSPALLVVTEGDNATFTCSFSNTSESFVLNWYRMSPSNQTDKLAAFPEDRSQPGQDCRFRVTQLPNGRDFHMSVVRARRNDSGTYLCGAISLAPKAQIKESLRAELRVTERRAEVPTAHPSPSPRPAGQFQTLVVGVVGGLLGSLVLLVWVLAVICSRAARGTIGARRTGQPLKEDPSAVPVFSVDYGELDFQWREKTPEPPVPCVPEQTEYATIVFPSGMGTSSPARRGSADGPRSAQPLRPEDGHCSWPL
Description: Jurkat-PD-1 Cell Binding High-Content Screening Assay (CBA). The settings on record: Jurkat-hPD-1 cells, PE-labeled PD-L1-Ig 20 nM final; read-out: Jurkat HPD1 PDL1 IC50. Summed up:
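Read-out: high-content imaging of cell-bound PE fluorescence, with Hoechst 33342 nuclear counterstain after paraformaldehyde fixation. Before labeled ligand (20 nM final, 1 h) was added, compound sat on the cells for 2 h at 37 °C in DMEM/10% FCS.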
With `Cc1cccc(C[C@@H]2NC(=O)[C@H](CC(=O)O)NC(=O)[C@H](Cc3ccc(CCC(=O)O)cc3)NC(=O)[C@H](CCNC(=O)C(C)(C)C)NC(=O)CSC[C@@H](C(=O)N[C@@H](CCN)C(=O)NCCCCCCCCCCC(=O)O)NC(=O)[C@H]([C@@H](C)O)NC(=O)[C@H](C(C)C)NC(=O)[C@H](CC3CCCCC3)NC(=O)[C@H](CCN)NC(=O)[C@@H](CC(C)C)NC(=O)[C@H](C)N(C)C(=O)[C@H](Cc3ccc(OCC(=O)O)cc3)NC(=O)[C@H](Cc3ccc(-c4ccccc4)cc3)NC(=O)[C@H](Cc3ccc(C(=O)O)cc3)NC2=O)c1` [Example 1269] ({CH2CO}-[Dab](Piv)[Phe(4-CH2CH2COOH)]D[Phe(3-Me)][Phe(4-COOH)][Bip]Y(Carboxymethyl)[NMeA][dL][Dab][Cha]VTC[Dab][Aun]-OH; thioether N-14), the pIC50 is 7.72.

For the molecule `Cc1cccc(C[C@@H]2NC(=O)[C@H](CC(=O)O)NC(=O)[C@H](Cc3ccc(OCC(=O)O)cc3)NC(=O)[C@H](CCNC(=O)C(C)(C)C)NC(=O)CSC[C@@H](C(=O)N[C@@H](CCN)C(=O)NCCCCCCCCCCC(=O)O)NC(=O)[C@H](CCC(N)=O)NC(=O)[C@H](C(C)C)NC(=O)[C@H](CC3CCCCC3)NC(=O)[C@H](CCN)NC(=O)[C@@H](CC(C)C)NC(=O)[C@H](C)N(C)C(=O)[C@H](Cc3ccc(OCC(=O)O)cc3)NC(=O)[C@H](Cc3ccc(-c4ccccc4)cc3)NC(=O)[C@H](Cc3ccc(C(=O)O)cc3)NC2=O)c1` [Example 1270] ({CH2CO}-[Dab](Piv)Y(Carboxymethyl)D[Phe(3-Me)][Phe(4-COOH)][Bip]Y(Carboxymethyl)[NMeA][dL][Dab][Cha]VQC[Dab][Aun]-OH; thioether N-14), the pIC50 was 7.21.

`CC(C)C[C@@H]1NC(=O)[C@H]([C@@H](C)c2c[nH]c3ccccc23)NC(=O)[C@H](CC(=O)O)NC(=O)[C@H](Cc2ccc(OCC(=O)O)cc2)NC(=O)[C@H](Cc2ccc(OCC(=O)O)cc2)NC(=O)CSC[C@@H](C(=O)NC2(C(=O)NCCOCCOCC(=O)NCCCCCCCCCCC(=O)O)CC2)NC(=O)[C@H](CCCNC(=N)N)NC(=O)[C@H](C(C)C)NC(=O)[C@H](CC2CCCCC2)NC(=O)[C@H](CCN)NC(=O)[C@@H](CC(C)C)NC(=O)[C@H](C)N(C)C(=O)[C@H](C(C)C)NC(=O)[C@H](Cc2ccc(-c3ccccc3)cc2)NC1=O` [Example 1271] ({CH2CO}-Y(Carboxymethyl)Y(Carboxymethyl)D[Trp(βS-Me)]L[Bip]V[NMeA][dL][Dab][Cha]VRC[Ac3c][AEEA][Aun]-OH; thioether N-14): the pIC50 was 7.41.

As for `CC(C)C[C@@H]1NC(=O)[C@H]([C@@H](C)c2c[nH]c3ccccc23)NC(=O)[C@H](CC(=O)O)NC(=O)[C@H](Cc2ccc(OCC(=O)O)cc2)NC(=O)[C@H](Cc2ccc(OCC(=O)O)cc2)NC(=O)CSC[C@@H](C(=O)NC2(C(=O)NCCOCCOCC(=O)NCCCCCCCCCCC(=O)O)CC2)NC(=O)[C@H](CCC(N)=O)NC(=O)[C@H](C(C)C)NC(=O)[C@H](CC2CCCCC2)NC(=O)[C@H](CCN)NC(=O)[C@@H](CC(C)C)NC(=O)[C@H](C)N(C)C(=O)[C@H](C(C)C)NC(=O)[C@H](Cc2ccc(-c3ccccc3)cc2)NC1=O` [Example 1272] ({CH2CO}-Y(Carboxymethyl)Y(Carboxymethyl)D[Trp(βS-Me)]L[Bip]V[NMeA][dL][Dab][Cha]VQC[Ac3c][AEEA][Aun]-OH; thioether N-14), the pIC50 was 7.39.

Regarding `CC(C)C[C@H]1NC(=O)[C@H](C)N(C)C(=O)[C@H](Cc2ccc(OCC(=O)O)cc2)NC(=O)[C@H](Cc2ccc(-c3ccccc3)cc2)NC(=O)[C@H](Cc2ccc(OCC(=O)O)cc2)NC(=O)[C@H]([C@@H](C)c2c[nH]c3ccccc23)NC(=O)[C@H](CC(=O)O)NC(=O)[C@H](Cc2ccc(OCC(=O)O)cc2)NC(=O)[C@H](CCCNC(=N)N)NC(=O)CSC[C@@H](C(=O)N[C@@H](CCN)C(=O)NCCCCCCCCCCC(=O)O)NC(=O)[C@H]([C@@H](C)O)NC(=O)[C@H](C(C)C)NC(=O)[C@H](CC2CCCCC2)NC(=O)[C@H](CCN)NC1=O` [Example 1273] ({CH2CO}-RY(Carboxymethyl)D[Trp(βS-Me)]Y(Carboxymethyl)[Bip]Y(Carboxymethyl)[NMeA][dL][Dab][Cha]VTC[Dab][Aun]-OH; thioether N-14), the negative logarithm of the IC50 (pIC50) is 6.49.

As to `Cc1cccc(C[C@@H]2NC(=O)[C@H](CC(=O)O)NC(=O)[C@H](Cc3ccc(OCC(=O)O)cc3)NC(=O)[C@H](CCCNC(N)=O)NC(=O)CSC[C@@H](C(=O)N[C@@H](CCN)C(=O)NCCCCCCCCCCC(=O)O)NC(=O)[C@H](CO)NC(=O)[C@H](C(C)C)NC(=O)[C@H](CC3CCCCC3)NC(=O)[C@H](CCN)NC(=O)[C@@H](CC(C)C)NC(=O)[C@H](C)N(C)C(=O)[C@H](Cc3ccc(O)cc3)NC(=O)[C@H](Cc3ccc(-c4ccccc4)cc3)NC(=O)[C@H](Cc3ccc(OCC(=O)O)cc3)NC2=O)c1` [Example 1275] ({CH2CO}-[Cit]Y(Carboxymethyl)D[Phe(3-Me)]Y(Carboxymethyl)[Bip]Y[NMeA][dL][Dab][Cha]VSC[Dab][Aun]-OH; thioether N-14), the pIC50 is 6.65.

With `Cc1cccc(C[C@@H]2NC(=O)[C@H](CC(=O)O)NC(=O)[C@H](Cc3ccc(OCC(=O)O)cc3)NC(=O)[C@H](CCc3ccccc3)NC(=O)CSC[C@@H](C(=O)N[C@@H](CCN)C(=O)NCCCCCCCCCCC(=O)O)NC(=O)[C@H](CO)NC(=O)[C@H](C(C)C)NC(=O)[C@H](CC3CCCCC3)NC(=O)[C@H](CCN)NC(=O)[C@@H](CC(C)C)NC(=O)[C@H](C)N(C)C(=O)[C@H](Cc3ccc(O)cc3)NC(=O)[C@H](Cc3ccc(-c4ccccc4)cc3)NC(=O)[C@H](Cc3ccc(OCC(=O)O)cc3)NC2=O)c1` [Example 1276] ({CH2CO}-[hPhe]Y(Carboxymethyl)D[Phe(3-Me)]Y(Carboxymethyl)[Bip]Y[NMeA][dL][Dab][Cha]VSC[Dab][Aun]-OH; thioether N-14), the pIC50 was 6.85.

As for `Cc1cccc(C[C@@H]2NC(=O)[C@H](CC(=O)O)NC(=O)[C@H](Cc3ccc(OCC(=O)O)cc3)NC(=O)[C@H](Cc3ccc(C(N)=O)cc3)NC(=O)CSC[C@@H](C(=O)N[C@@H](CCN)C(=O)NCCCCCCCCCCC(=O)O)NC(=O)[C@H](CO)NC(=O)[C@H](C(C)C)NC(=O)[C@H](CC3CCCCC3)NC(=O)[C@H](CCN)NC(=O)[C@@H](CC(C)C)NC(=O)[C@H](C)N(C)C(=O)[C@H](Cc3ccc(O)cc3)NC(=O)[C@H](Cc3ccc(-c4ccccc4)cc3)NC(=O)[C@H](Cc3ccc(OCC(=O)O)cc3)NC2=O)c1` [Example 1277] ({CH2CO}-[Phe(4-CONH2)]Y(Carboxymethyl)D[Phe(3-Me)]Y(Carboxymethyl)[Bip]Y[NMeA][dL][Dab][Cha]VSC[Dab][Aun]-OH; thioether N-14), the negative logarithm of the IC50 (pIC50) is 7.61.

In the case of `Cc1cccc(C[C@@H]2NC(=O)[C@H](CC(=O)O)NC(=O)[C@H](Cc3ccc(OCC(=O)O)cc3)NC(=O)[C@H](Cc3cccnc3)NC(=O)CSC[C@@H](C(=O)N[C@@H](CCN)C(=O)NCCCCCCCCCCC(=O)O)NC(=O)[C@H](CO)NC(=O)[C@H](C(C)C)NC(=O)[C@H](CC3CCCCC3)NC(=O)[C@H](CCN)NC(=O)[C@@H](CC(C)C)NC(=O)[C@H](C)N(C)C(=O)[C@H](Cc3ccc(O)cc3)NC(=O)[C@H](Cc3ccc(-c4ccccc4)cc3)NC(=O)[C@H](Cc3ccc(OCC(=O)O)cc3)NC2=O)c1` [Example 1278] ({CH2CO}-[3Pal]Y(Carboxymethyl)D[Phe(3-Me)]Y(Carboxymethyl)[Bip]Y[NMeA][dL][Dab][Cha]VSC[Dab][Aun]-OH; thioether N-14), the pIC50 is 7.48.
